Experimental data published in patent US8871767B2, “2-arylimidazo[1,2-B]pyridazine, 2-phenylimidazo[1,2-A]pyridine, and 2-phenylimidazo[1,2-A]pyrazine derivatives” (Hengrui (USA) Ltd., priority 2010, dated 2014).
Read-outs that look alike come from different tables or passages of the source.

How the values were obtained:
[1] = tested on: Hedgehog pathway activation on 10T1/2/Smo#3 cells (C3H10T1/2 cells transfected with human Smoothened receptor); experiment: Hedgehog pathway activation on 10T1/2/Smo#3 cells measured by ALP activity; assay type: cell-based; conditions: Mus musculus, C3H 10T1/2, 10T1/2/Smo#3 cells
Procedure, shortened: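 Inhibition of alkaline phosphatase induction, read fluorometrically from 4-methylumbelliferyl phosphate conversion, gave IC50 values; CellTiter-Blue tracked viability in parallel. Cells were the human Smo-transfected 10T1/2/Smo#3 pool, stimulated by 10-20% hShh conditioned medium or the Smo agonist SAG (500 nM).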

[2] = tested on: Hedgehog pathway activation (GLi-luciferase reporter) in Shh Light II reporter cells; experiment: Hedgehog pathway activation on Shh Light II reporter cells measured by luciferase activity; assay type: cell-based; conditions: Mus musculus, Shh Light II
Procedure, shortened: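 Shh Light II reporter cells carrying a hedgehog-responsive GLi-luciferase reporter were stimulated either with 500 nM SAG, a direct Smoothened agonist, or with conditioned media containing human Sonic Hedgehog (hShh). Test compounds were evaluated for blocking this pathway activation, quantified by luciferase activity. Cell viability was monitored in parallel with the Celltiter-Blue® assay.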

[3] = measured by ALP activity, read-out: ALP (IC50, inhibition of Hedgehog pathway activation)
[4] = hShh activation, read-out: Shh (IC50, inhibition of Hedgehog pathway activation)
[5] = hShh activation, ALP activity, read-out: 10T1/2/Smo#3 ALP activity (hShh Activation)
[6] = SAG activation (500 nM SAG), read-out: Shh Light II luciferase activity (SAG activation)
[7] = hShh activation, read-out: Shh Light II luciferase activity (hShh activation)

IC50 [1, 3] [nM]	IC50 [2, 4] [nM]	IC50 [1, 5] [nM]	IC50 [2, 6] [nM]	IC50 [2, 7] [nM]	SMILES
296	138	–	–	–	CC(C)(C)C(=O)Nc1cc(-c2cn3nc(N4CCC5(CC4)OCCO5)ccc3n2)ccc1C(F)(F)F [Example 371, N-(5-(6-(1,4-dioxa-8-azaspiro[4.5]decan-8-yl)imidazo[1,2-b]pyridazin-2-yl)-2-(trifluoromethyl)phenyl)pivalamide]
–	–	< 300	< 300	< 300	CCc1ccc(-c2cn3nc(-c4cccnc4C(F)(F)F)ccc3n2)cc1NC(=O)C1(C)CC1 [Example 633]
6560	976	–	–	–	O=C(Nc1cc(-c2cn3nc(-c4cccnc4C(F)(F)F)ccc3n2)ccc1F)C1CC1 [Example 681, N-(2-fluoro-5-(6-(2-(trifluoromethyl)pyridin-3-yl)imidazo[1,2-b]pyridazin-2-yl)phenyl)cyclopropanecarboxamide]
424	59	–	–	–	Cc1ccc(-c2cn3nc(-c4cccc(C(=O)Nc5ccccc5N)c4)ccc3n2)cc1NC(=O)C(C)(C)C [compound 598]
736	193	–	–	–	CCOC(=O)CCCCOc1ccc(C(F)(F)F)c(-c2ccc3nc(-c4ccc(C)c(NC(=O)C(C)(C)C)c4)cn3n2)c1 [Example 433, ethyl 5-(3-(2-(4-methyl-3-pivalamidophenyl)imidazo[1,2-b]pyridazin-6-yl)-4-(trifluoromethyl)phenoxy)pentanoate]
418	2180	–	–	–	Cc1ccc(-c2cn3nc(N4CCC(N(C)C(=O)C(N)C(C)C)C4)ccc3n2)cc1NC(=O)C(C)(C)C (stereo not drawn) [Example 637, 2-amino-N,3-dimethyl-N-(1-(2-(4-methyl-3-pivalamidophenyl)imidazo[1,2-b]pyridazin-6-yl)pyrrolidin-3-yl)butanamide]
360	124	–	–	–	Cc1ccc(-c2cn3nc(-c4ccnc(F)c4)ccc3n2)cc1NC(=O)C(C)(C)C [Example 365, N-(5-(6-(2-fluoropyridin-4-yl)imidazo[1,2-b]pyridazin-2-yl)-2-methylphenyl)pivalamide]
533	929	–	–	–	COc1ncc(-c2ccc3nc(-c4ccc(C(F)(F)F)c(NC(=O)C(C)(C)C)c4)cn3n2)cn1 [Example 373, N-(5-(6-(2-methoxypyrimidin-5-yl)imidazo[1,2-b]pyridazin-2-yl)-2-(trifluoromethyl)phenyl)pivalamide]
721	111	–	–	–	O=C(Nc1cc(-c2cn3nc(-c4cccnc4C(F)(F)F)ccc3n2)ccc1Cl)C1CC1 [Example 676, N-(2-chloro-5-(6-(2-(trifluoromethyl)pyridin-3-yl)imidazo[1,2-b]pyridazin-2-yl)phenyl)cyclopropanecarboxamide]
110	92	< 300	300 to 3000	< 300	Cc1ccc(-c2cn3nc(-c4ccc(C(N)=O)cc4C(F)(F)F)ccc3n2)cc1NC(=O)C(C)(C)C [compound 508]
109	123	–	–	–	CC(C)(C)C(=O)Nc1cc(-c2cn3nc(N4CC[C@@H](O)C4)ccc3n2)ccc1C(F)(F)F [Example 341, (R)-N-(5-(6-(3-hydroxypyrrolidin-1-yl)imidazo[1,2-b]pyridazin-2-yl)-2-(trifluoromethyl)phenyl)pivalamide]
1060	391	–	–	–	Cc1ccc(-c2cn3nc(-c4ccc(C=CC(=O)NOC5CCCCO5)cc4)ccc3n2)cc1NC(=O)C(C)(C)C (stereo not drawn) [compound 558]
229	254	–	–	–	CCc1ccc(-c2cn3nc(-c4cccnc4C(F)(F)F)ccc3n2)cc1NC(=O)C1(C)COC1 [Example 696, N-(2-ethyl-5-(6-(2-(trifluoromethyl)pyridin-3-yl)imidazo[1,2-b]pyridazin-2-yl)phenyl)-3-methyloxetane-3-carboxamide]
> 10000	2620	–	–	–	CCNS(=O)(=O)c1cc(-c2cn3nc(-c4cccnc4C(F)(F)F)ccc3n2)ccc1Cl [Example 701, 2-chloro-N-ethyl-5-(6-(2-(trifluoromethyl)pyridin-3-yl)imidazo[1,2-b]pyridazin-2-yl)benzenesulfonamide]
679	251	–	–	–	CCOC(=O)COc1ccc(-c2ccc3nc(-c4ccc(C)c(NC(=O)C(C)(C)C)c4)cn3n2)c(C(F)(F)F)c1 [Example 411, ethyl 2-(4-(2-(4-methyl-3-pivalamidophenyl)imidazo[1,2-b]pyridazin-6-yl)-3-(trifluoromethyl)phenoxy)acetate]
612	403	–	–	–	CN(CCO)c1ccc2nc(-c3ccc(C(F)(F)F)c(NC(=O)C(C)(C)C)c3)cn2n1 [Example 298, N-(5-(6-((2-hydroxyethyl)(methyl)amino)imidazo[1,2-b]pyridazin-2-yl)-2-(trifluoromethyl)phenyl)pivalamide]
61	9	–	–	–	Cc1ccc(-c2cn3nc(-c4cc(C#N)ccc4Cl)ccc3n2)cc1NC(=O)C(C)(C)C [compound 565]
756	376	–	–	–	Cc1ccc(-c2cn3nc(-c4ccc(NC(=O)CCCCCCC(=O)NOC5CCCCO5)cc4)ccc3n2)cc1NC(=O)C(C)(C)C (stereo not drawn) [compound 562]

Continued, molecule first:

SMILES	IC50 [1, 3] [nM]	IC50 [2, 4] [nM]	IC50 [1, 5] [nM]	IC50 [2, 6] [nM]	IC50 [2, 7] [nM]
CCOc1ccc2nc(-c3ccc(CC)c(NC(=O)C(C)(C)C)c3)cn2n1 [Example 283, N-(5-(6-ethoxyimidazo[1,2-b]pyridazin-2-yl)-2-ethylphenyl)pivalamide]	1820	2230	300 to 3000	3000 to 30000	300 to 3000
CCOc1ccc2nc(-c3ccc(C(F)(F)F)c(NC(=O)CC(C)(C)C)c3)cn2n1 [Example 187, N-(5-(6-ethoxyimidazo[1,2-b]pyridazin-2-yl)-2-(trifluoromethyl)phenyl)-3,3-dimethylbutanamide]	> 10000	> 10000	–	–	–
CC(C)(C)C(=O)Nc1cc(-c2cn3nc(-c4cc(C(F)(F)F)ccc4F)ccc3n2)ccc1C(F)(F)F [Example 207, N-(5-(6-(2-fluoro-5-(trifluoromethyl)phenyl)imidazo[1,2-b]pyridazin-2-yl)-2-(trifluoromethyl)phenyl)pivalamide]	43	43	< 300	< 300	< 300
CCCCSc1ccc2nc(-c3ccc(C)c(NC(=O)C(C)(C)C)c3)cn2n1 [Example 124, N-(5-(6-(butylthio)imidazo[1,2-b]pyridazin-2-yl)-2-methylphenyl)pivalamide]	604	895	300 to 3000	300 to 3000	300 to 3000
Fc1ccc(CN2CCN(c3ccc4nc(-c5ccc(F)cc5)c(Br)n4n3)CC2)cc1 [Example 146, 3-bromo-6-(4-(4-fluorobenzyl)piperazin-1-yl)-2-(4-fluorophenyl)imidazo[1,2-b]pyridazine]	6980	> 10000	–	–	–
CC(C)(C)C(=O)Nc1cc(-c2cn3nc(-c4ccncc4F)ccc3n2)ccc1C(F)(F)F [Example 177, N-(5-(6-(3-fluoropyridin-4-yl)imidazo[1,2-b]pyridazin-2-yl)-2-(trifluoromethyl)phenyl)pivalamide]	236	357	–	–	–
Cc1ccc(-c2cn3nc(-c4cc(Cl)ccc4F)ccc3n2)cc1NC(=O)C(C)(C)C [Example 262, N-(5-(6-(5-chloro-2-fluorophenyl)imidazo[1,2-b]pyridazin-2-yl)-2-methylphenyl)pivalamide]	103	342	–	–	–
Cc1ccc(-c2cn3nc(-c4ccccc4Cl)ccc3n2)cc1NC(=O)C(C)(C)C [Example 258, N-(5-(6-(2-chlorophenyl)imidazo[1,2-b]pyridazin-2-yl)-2-methylphenyl)pivalamide]	105	129	–	–	–
CCOc1ccc2nc(-c3ccc(C(F)(F)F)c(-c4ccccn4)c3)cn2n1 [Example 218, 6-ethoxy-2-(3-(pyridin-2-yl)-4-(trifluoromethyl)phenyl)imidazo[1,2-b]pyridazine]	2120	1720	300 to 3000	3000 to 30000	300 to 3000
Cc1c(-c2ccccc2)nc2ccc(N3CCN(Cc4ccc(F)cc4)CC3)nn12 [Example 134, 6-(4-(4-fluorobenzyl)piperazin-1-yl)-3-methyl-2-phenylimidazo[1,2-b]pyridazine]	232	926	< 300	300 to 3000	300 to 3000
CC(C)c1ccc2nc(-c3ccc(C(F)(F)F)c(NC(=O)C(C)(C)C)c3)cn2n1 [Example 140, N-(5-(6-isopropylimidazo[1,2-b]pyridazin-2-yl)-2-(trifluoromethyl)phenyl)pivalamide]	314	721	–	–	–
CC(C)(C)C(=O)Nc1cc(-c2cn3nc(-c4ccc(Cl)cc4)ccc3n2)ccc1C(F)(F)F [Example 238, N-(5-(6-(4-chlorophenyl)imidazo[1,2-b]pyridazin-2-yl)-2-(trifluoromethyl)phenyl)pivalamide]	230	625	–	–	–
COc1ccc(-c2ccc3nc(-c4ccc(C(F)(F)F)c(NC(=O)C(C)(C)C)c4)cn3n2)cc1 [Example 244, N-(5-(6-(4-methoxyphenyl)imidazo[1,2-b]pyridazin-2-yl)-2-(trifluoromethyl)phenyl)pivalamide]	1630	308	–	–	–
